Measurements: ChEMBL document CHEMBL3632469, “Discovery of dihydroquinazolinone derivatives as potent, selective, and CNS-penetrant M(1) and M(4) muscarinic acetylcholine receptors agonists” (Bioorg Med Chem Lett, 2015)

What was measured:
[1] = molecular target: Kappa-type opioid receptor (Homo sapiens) (UniProt P41145); assay: Antagonist activity at opiate kappa receptor (unknown origin) expressed in CHO cells assessed as calcium mobilization at 3 uM; format: functional, cell-based
[2] = molecular target: 5-hydroxytryptamine receptor 1F (Homo sapiens) (UniProt P30939); assay: Agonist activity at 5-HT1F receptor (unknown origin) expressed in CHO cells assessed as calcium mobilization at 3 uM; format: functional, cell-based
[3] = molecular target: Kappa-type opioid receptor (Homo sapiens) (UniProt P41145); assay: Agonist activity at ppiate kappa receptor (unknown origin) expressed in CHO cells assessed as calcium mobilization at 3 uM; format: functional, cell-based
[4] = molecular target: 5-hydroxytryptamine receptor 1E (Homo sapiens) (UniProt P28566); assay: Agonist activity at 5-HT1E receptor (unknown origin) expressed in CHO cells assessed as calcium mobilization at 3 uM; format: functional, cell-based
Chain of 5-hydroxytryptamine receptor 1E (Homo sapiens) (P28566 whole entry): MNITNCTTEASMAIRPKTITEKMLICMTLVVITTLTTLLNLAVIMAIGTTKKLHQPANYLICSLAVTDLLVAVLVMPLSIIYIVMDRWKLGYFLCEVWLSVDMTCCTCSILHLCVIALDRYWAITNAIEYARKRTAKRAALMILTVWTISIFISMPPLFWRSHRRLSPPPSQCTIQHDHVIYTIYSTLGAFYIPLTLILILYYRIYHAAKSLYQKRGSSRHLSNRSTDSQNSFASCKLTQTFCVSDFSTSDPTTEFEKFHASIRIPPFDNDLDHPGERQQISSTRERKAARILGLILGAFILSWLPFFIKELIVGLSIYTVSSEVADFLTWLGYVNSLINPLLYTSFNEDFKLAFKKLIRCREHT

[5] = molecular target: Histamine H2 receptor (Homo sapiens) (UniProt P25021); assay: Agonist activity at histamine H2 receptor (unknown origin) expressed in CHO cells assessed as calcium mobilization at 3 uM; format: functional, cell-based
Chain of Histamine H2 receptor (Homo sapiens) (P25021 whole entry): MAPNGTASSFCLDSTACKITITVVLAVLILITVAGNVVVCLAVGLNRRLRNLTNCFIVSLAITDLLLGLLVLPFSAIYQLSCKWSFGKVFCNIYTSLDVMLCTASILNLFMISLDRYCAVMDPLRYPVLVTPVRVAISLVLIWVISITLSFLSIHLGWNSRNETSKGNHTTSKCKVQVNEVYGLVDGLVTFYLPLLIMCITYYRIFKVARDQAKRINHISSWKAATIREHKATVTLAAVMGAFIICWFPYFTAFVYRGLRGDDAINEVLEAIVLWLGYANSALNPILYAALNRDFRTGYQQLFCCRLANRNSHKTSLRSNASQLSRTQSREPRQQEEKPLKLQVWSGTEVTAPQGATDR

[6] = molecular target: Delta-type opioid receptor (Homo sapiens) (UniProt P41143); assay: Agonist activity at opiate delta1 receptor (unknown origin) expressed in CHO cells assessed as calcium mobilization at 3 uM; format: functional, cell-based
Chain of Delta-type opioid receptor (Homo sapiens) (P41143 whole entry): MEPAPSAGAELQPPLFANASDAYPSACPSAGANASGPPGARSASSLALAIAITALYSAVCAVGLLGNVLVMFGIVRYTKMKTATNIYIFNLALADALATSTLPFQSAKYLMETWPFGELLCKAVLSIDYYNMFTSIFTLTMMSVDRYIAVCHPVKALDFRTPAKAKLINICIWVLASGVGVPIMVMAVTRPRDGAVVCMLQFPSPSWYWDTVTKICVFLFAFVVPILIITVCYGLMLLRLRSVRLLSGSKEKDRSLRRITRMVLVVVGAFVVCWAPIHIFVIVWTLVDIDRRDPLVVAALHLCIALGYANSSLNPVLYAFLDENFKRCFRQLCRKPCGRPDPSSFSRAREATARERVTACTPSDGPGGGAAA

[7] = molecular target: 5-hydroxytryptamine receptor 2B (Homo sapiens) (UniProt P41595); assay: Antagonist activity at 5-HT2B receptor (unknown origin) expressed in CHO cells assessed as calcium mobilization at 3 uM; format: functional, cell-based
Chain of 5-hydroxytryptamine receptor 2B (Homo sapiens) (P41595 whole entry): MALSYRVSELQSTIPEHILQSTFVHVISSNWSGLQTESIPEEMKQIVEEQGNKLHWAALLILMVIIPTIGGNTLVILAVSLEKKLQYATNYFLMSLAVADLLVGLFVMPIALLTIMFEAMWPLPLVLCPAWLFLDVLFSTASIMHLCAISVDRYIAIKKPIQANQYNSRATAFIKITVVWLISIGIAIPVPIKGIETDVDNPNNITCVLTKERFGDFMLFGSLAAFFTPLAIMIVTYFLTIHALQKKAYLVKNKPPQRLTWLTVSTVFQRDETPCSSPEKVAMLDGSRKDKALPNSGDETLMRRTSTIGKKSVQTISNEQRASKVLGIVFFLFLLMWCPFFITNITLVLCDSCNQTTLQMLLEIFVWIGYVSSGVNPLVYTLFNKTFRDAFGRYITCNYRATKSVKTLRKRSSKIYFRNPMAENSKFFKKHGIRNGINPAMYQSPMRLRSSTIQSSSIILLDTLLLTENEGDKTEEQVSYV

[8] = molecular target: 5-hydroxytryptamine receptor 2C (Homo sapiens) (UniProt P28335); assay: Agonist activity at 5-HT2C receptor (unknown origin) expressed in CHO cells assessed as calcium mobilization at 3 uM; format: functional, cell-based
Chain of 5-hydroxytryptamine receptor 2C (Homo sapiens) (P28335 whole entry): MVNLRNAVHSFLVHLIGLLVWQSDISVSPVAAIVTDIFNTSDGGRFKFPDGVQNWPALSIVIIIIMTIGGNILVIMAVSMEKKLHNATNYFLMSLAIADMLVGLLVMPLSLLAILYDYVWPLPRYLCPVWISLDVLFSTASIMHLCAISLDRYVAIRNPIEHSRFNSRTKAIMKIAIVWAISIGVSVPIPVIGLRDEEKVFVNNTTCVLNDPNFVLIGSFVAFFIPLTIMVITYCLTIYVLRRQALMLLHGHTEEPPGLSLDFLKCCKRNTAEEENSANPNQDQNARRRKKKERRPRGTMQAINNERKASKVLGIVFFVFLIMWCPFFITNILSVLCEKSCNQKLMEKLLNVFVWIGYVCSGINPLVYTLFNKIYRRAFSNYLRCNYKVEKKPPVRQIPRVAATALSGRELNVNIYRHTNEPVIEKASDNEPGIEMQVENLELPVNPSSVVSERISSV

CHO = assay: Agonist activity at GaBaB receptor (unknown origin) expressed in CHO cells assessed as calcium mobilization at 3 uM; format: cell-based; details: Homo sapiens
[9] = molecular target: 5-hydroxytryptamine receptor 6 (Homo sapiens) (UniProt P50406); assay: Antagonist activity at 5-HT6 receptor (unknown origin) expressed in CHO cells assessed as calcium mobilization at 3 uM; format: functional, cell-based
[10] = molecular target: Cysteinyl leukotriene receptor 1 (Homo sapiens) (UniProt Q9Y271); assay: Agonist activity at CysLT1 receptor (unknown origin) expressed in CHO cells assessed as calcium mobilization at 3 uM; format: functional, cell-based
Chain of Cysteinyl leukotriene receptor 1 (Homo sapiens) (Q9Y271 whole entry): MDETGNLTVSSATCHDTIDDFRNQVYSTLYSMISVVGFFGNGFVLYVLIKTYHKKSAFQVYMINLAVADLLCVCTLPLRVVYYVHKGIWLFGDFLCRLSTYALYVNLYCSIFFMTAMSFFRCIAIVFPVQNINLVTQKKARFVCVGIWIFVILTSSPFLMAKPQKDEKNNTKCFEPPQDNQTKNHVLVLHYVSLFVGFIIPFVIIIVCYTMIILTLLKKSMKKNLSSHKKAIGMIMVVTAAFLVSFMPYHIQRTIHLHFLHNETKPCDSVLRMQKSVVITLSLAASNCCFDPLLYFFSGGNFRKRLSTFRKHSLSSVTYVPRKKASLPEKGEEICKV

[11] = molecular target: 5-hydroxytryptamine receptor 1B (Homo sapiens) (UniProt P28222); assay: Agonist activity at 5-HT1B receptor (unknown origin) expressed in CHO cells assessed as calcium mobilization at 3 uM; format: functional, cell-based
[12] = molecular target: Cysteinyl leukotriene receptor 2 (Homo sapiens) (UniProt Q9NS75); assay: Antagonist activity at CysLT2 receptor (unknown origin) expressed in CHO cells assessed as calcium mobilization at 3 uM; format: functional, cell-based
Chain of Cysteinyl leukotriene receptor 2 (Homo sapiens) (Q9NS75 whole entry): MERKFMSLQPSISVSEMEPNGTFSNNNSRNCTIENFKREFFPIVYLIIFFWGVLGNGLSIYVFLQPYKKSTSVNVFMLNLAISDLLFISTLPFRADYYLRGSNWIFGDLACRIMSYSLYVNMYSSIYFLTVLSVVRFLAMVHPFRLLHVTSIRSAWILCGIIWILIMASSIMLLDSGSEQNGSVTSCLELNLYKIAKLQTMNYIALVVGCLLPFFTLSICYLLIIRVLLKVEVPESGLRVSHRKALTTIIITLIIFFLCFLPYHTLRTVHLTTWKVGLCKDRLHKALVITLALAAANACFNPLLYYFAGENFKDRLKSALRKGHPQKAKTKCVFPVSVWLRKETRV

[13] = molecular target: Mu-type opioid receptor (Homo sapiens) (UniProt P35372); assay: Agonist activity at ppiate mu receptor (unknown origin) expressed in CHO cells assessed as calcium mobilization at 3 uM; format: functional, cell-based
Chain of Mu-type opioid receptor (Homo sapiens) (P35372 whole entry): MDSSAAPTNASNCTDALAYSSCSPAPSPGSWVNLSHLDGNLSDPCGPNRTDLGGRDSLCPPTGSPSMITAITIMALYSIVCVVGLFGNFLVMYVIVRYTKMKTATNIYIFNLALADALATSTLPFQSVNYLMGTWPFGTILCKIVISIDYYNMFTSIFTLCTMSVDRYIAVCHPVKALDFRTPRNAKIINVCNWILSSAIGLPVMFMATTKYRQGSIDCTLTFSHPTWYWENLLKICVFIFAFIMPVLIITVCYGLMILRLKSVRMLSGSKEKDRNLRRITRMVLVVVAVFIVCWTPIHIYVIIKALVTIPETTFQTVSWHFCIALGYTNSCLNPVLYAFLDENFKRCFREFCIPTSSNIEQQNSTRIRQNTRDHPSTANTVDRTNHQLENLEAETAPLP

[14] = molecular target: Alpha-2A adrenergic receptor (Homo sapiens) (UniProt P08913); assay: Antagonist activity at adrenergic a2a receptor (unknown origin) expressed in CHO cells assessed as calcium mobilization at 3 uM; format: functional, cell-based
[15] = molecular target: 5-hydroxytryptamine receptor 2B (Homo sapiens) (UniProt P41595); assay: Agonist activity at 5-HT2B receptor (unknown origin) expressed in CHO cells assessed as calcium mobilization at 3 uM; format: functional, cell-based
[16] = molecular target: D(2) dopamine receptor (Homo sapiens) (UniProt P14416); assay: Agonist activity at dopamine D2S receptor (unknown origin) expressed in CHO cells assessed as calcium mobilization at 3 uM; format: functional, cell-based
Chain of D(2) dopamine receptor (Homo sapiens) (P14416 whole entry): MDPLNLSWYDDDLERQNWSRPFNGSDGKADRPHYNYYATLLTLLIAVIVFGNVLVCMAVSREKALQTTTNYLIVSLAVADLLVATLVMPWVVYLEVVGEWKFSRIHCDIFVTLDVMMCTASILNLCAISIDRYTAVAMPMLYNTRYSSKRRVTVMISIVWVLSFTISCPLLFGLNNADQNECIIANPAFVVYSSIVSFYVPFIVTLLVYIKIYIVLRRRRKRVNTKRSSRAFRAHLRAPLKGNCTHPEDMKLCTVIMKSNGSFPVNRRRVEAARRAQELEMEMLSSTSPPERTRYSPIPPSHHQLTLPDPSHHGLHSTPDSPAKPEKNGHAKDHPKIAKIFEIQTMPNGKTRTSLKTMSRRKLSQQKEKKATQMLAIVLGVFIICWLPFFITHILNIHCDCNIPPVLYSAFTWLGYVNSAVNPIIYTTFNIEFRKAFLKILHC

[17] = molecular target: T1, Muscarinic acetylcholine receptor M4 (Homo sapiens) (UniProt P08173); assay: Partial agonist activity at human muscarinic M4 acetylcholine receptor expressed in CHO cells co-expressing Galpha16 assessed as calcium mobilization by FLIPR assay relative to control; format: functional, cell-based
T1 sequence (whole entry): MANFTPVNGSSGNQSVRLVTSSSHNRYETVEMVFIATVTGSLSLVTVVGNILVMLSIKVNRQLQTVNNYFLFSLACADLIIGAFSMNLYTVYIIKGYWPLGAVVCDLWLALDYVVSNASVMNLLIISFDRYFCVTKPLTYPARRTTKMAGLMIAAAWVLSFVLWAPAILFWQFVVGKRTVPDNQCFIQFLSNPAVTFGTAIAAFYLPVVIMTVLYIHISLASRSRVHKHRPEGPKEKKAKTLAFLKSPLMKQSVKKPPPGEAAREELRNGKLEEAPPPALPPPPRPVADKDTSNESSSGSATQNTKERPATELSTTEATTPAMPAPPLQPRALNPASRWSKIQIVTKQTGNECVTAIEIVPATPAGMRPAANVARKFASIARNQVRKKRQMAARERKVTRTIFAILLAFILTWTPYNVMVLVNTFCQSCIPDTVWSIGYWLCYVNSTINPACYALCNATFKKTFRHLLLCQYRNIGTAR

[18] = molecular target: 5-hydroxytryptamine receptor 5A (Homo sapiens) (UniProt P47898); assay: Antagonist activity at 5-HT5a receptor (unknown origin) expressed in CHO cells assessed as calcium mobilization at 3 uM; format: functional, cell-based
Chain of 5-hydroxytryptamine receptor 5A (Homo sapiens) (P47898 whole entry): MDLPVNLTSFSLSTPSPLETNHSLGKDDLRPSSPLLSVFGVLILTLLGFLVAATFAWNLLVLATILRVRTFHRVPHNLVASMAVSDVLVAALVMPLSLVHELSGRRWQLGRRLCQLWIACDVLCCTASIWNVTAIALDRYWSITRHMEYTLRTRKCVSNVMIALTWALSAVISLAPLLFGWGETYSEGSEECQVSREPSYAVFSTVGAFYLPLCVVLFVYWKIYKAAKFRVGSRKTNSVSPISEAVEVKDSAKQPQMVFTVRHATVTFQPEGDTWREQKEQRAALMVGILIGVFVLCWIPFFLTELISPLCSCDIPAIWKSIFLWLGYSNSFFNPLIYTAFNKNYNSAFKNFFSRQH

[19] = molecular target: T2, Muscarinic acetylcholine receptor M2 (Homo sapiens) (UniProt P08172); assay: Agonist activity at human muscarinic M2 acetylcholine receptor expressed in CHO cells co-expressing Galpha16 assessed as calcium mobilization at 30 uM by FLIPR assay; format: functional, cell-based
T2 sequence (whole entry): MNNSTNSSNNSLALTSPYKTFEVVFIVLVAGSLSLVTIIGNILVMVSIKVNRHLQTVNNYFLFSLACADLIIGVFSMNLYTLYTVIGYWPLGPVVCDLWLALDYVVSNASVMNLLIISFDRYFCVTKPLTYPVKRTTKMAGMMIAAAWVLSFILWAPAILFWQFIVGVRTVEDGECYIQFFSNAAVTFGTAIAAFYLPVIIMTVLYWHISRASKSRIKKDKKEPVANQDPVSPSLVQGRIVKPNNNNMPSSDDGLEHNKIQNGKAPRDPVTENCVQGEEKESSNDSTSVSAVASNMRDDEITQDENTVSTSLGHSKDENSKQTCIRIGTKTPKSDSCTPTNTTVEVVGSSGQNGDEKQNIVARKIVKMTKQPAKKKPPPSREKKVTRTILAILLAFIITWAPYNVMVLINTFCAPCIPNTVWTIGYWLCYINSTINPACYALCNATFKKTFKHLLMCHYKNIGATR

[20] = molecular target: Beta-1 adrenergic receptor (Homo sapiens) (UniProt P08588); assay: Antagonist activity at adrenergic beta1 receptor (unknown origin) expressed in CHO cells assessed as calcium mobilization at 3 uM; format: functional, cell-based
[21] = molecular target: Type-1 angiotensin II receptor (Homo sapiens) (UniProt P30556); assay: Agonist activity at angiotensin 2 type 1 receptor (unknown origin) expressed in CHO cells assessed as calcium mobilization at 3 uM; format: functional, cell-based
Chain of Type-1 angiotensin II receptor (Homo sapiens) (P30556 whole entry): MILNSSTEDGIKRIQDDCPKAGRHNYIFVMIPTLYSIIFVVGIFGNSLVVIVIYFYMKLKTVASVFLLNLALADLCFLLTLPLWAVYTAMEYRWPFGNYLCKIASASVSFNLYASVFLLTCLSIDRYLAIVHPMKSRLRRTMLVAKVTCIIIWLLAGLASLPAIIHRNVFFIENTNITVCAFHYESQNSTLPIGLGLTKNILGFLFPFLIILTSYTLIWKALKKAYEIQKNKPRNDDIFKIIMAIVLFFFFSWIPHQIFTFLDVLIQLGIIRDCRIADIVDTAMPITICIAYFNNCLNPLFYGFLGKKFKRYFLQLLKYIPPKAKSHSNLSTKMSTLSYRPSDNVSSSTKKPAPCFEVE

[22] = molecular target: 5-hydroxytryptamine receptor 2A (Homo sapiens) (UniProt P28223); assay: Agonist activity at 5-HT2a receptor (unknown origin) expressed in CHO cells assessed as calcium mobilization at 3 uM; format: functional, cell-based
[23] = molecular target: Neuropeptide Y receptor type 2 (Homo sapiens) (UniProt P49146); assay: Antagonist activity at NPY2 receptor (unknown origin) expressed in CHO cells assessed as calcium mobilization at 3 uM; format: functional, cell-based
[24] = molecular target: D(2) dopamine receptor (Homo sapiens) (UniProt P14416); assay: Binding affinity to dopamine D2 receptor (unknown origin) at 3 uM by radioligand-binding assay

Chain of Kappa-type opioid receptor (Homo sapiens) (P41145 whole entry): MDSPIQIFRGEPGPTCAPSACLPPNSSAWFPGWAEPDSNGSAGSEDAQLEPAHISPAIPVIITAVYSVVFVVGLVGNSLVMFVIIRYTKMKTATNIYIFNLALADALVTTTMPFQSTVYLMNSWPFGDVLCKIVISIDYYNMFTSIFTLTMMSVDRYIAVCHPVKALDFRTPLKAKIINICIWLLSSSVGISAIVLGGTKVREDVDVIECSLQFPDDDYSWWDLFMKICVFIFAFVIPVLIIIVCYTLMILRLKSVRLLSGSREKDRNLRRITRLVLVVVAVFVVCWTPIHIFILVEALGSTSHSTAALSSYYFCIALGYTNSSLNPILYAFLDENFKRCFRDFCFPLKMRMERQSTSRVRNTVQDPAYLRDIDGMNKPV

**Q.** With `CCOC(=O)N1[C@@H]2CC[C@H]1C[C@H](CN1CC[C@@H](N3Cc4ccccc4NC3=O)C1)C2` as the compound, how does the inhibition [1] read?
**A.** Its inhibition is 1.33%.

**Q.** What about the Activity [2] of the same compound?
**A.** Its Activity is -0.53%.

**Q.** And the Activity [3]?
**A.** The Activity was -0.33%.

**Q.** What about the Activity [4] of the same compound?
**A.** Its Activity is 0.11%.

**Q.** And the Activity [5]?
**A.** Its Activity is -0.83%.

**Q.** And the Activity [6]?
**A.** Its Activity is -0.04%.

**Q.** And the inhibition [7]?
**A.** Its inhibition is 6.13%.

**Q.** And the Activity [8]?
**A.** The Activity was 0.22%.

**Q.** What about the Activity (CHO) of the same compound?
**A.** Its Activity is 0.7%.

**Q.** And the inhibition [9]?
**A.** The inhibition was 1.97%.

**Q.** And the Activity [10]?
**A.** The Activity was 0.45%.

**Q.** And the Activity [11]?
**A.** Its Activity is -1.26%.

**Q.** And the inhibition [12]?
**A.** The inhibition was 18.8%.

**Q.** What about the Activity [13] of the same compound?
**A.** The Activity was 1%.

**Q.** And the inhibition [14]?
**A.** Its inhibition is 9.18%.

**Q.** What about the Activity [15] of the same compound?
**A.** Its Activity is -0.03%.

**Q.** What about the Activity [16] of the same compound?
**A.** The Activity was -0.5%.

**Q.** And the Activity [17]?
**A.** The Activity was 51%.

**Q.** What about the inhibition [18] of the same compound?
**A.** The inhibition was 0.91%.

**Q.** And the Activity [19]?
**A.** Its Activity is 3%.

**Q.** And the inhibition [20]?
**A.** The inhibition was 27.6%.

**Q.** What about the Activity [21] of the same compound?
**A.** The Activity was -0.18%.

**Q.** What about the Activity [22] of the same compound?
**A.** Its Activity is 0.07%.

**Q.** What about the inhibition [23] of the same compound?
**A.** The inhibition was -1.91%.

**Q.** What about the inhibition [24] of the same compound?
**A.** Its inhibition is 13%.
